Data reported in patent publication US20170050957A1, “4-AMINO-6-(HETEROCYCLIC)PICOLINATES AND 6-AMINO-2-(HETEROCYCLIC)PYRIMIDINE-4-CARBOXYLATES AND THEIR USE AS HERBICIDES” (Dow AgroSciences LLC, priority 2013, published 2017).
Read-outs that look alike come from different tables or passages of the source.

Experiments:
[1] = test system: Key Broadleaf Weed and Crop Species; experiment: Post-emergent Test II herbicidal activity (Table 15); type: in vivo; conditions: post-emergence, 336 h, 14 d; for pest or weed control at 35 g/ha: 35 g ai/ha; for pest or weed control at 70 g/ha: 70 g ai/ha; for pest or weed control at 140 g/ha: 140 g ai/ha
Method in brief: (§1)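 Visual injury rating (0 = none, 100% = complete kill) made 14 d after treatment, relative to untreated plants. Compounds in an acetone/DMSO/aqueous crop-oil/surfactant spray, at top rate and serial 1/2×-1/16× rates, were applied at 187 L/ha overhead to first-second true leaf plants raised 7-21 d in greenhouse.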

[2] = test system: Key Grass and Sedge Weeds as well as Grass Crops; experiment: Post-emergent Test II herbicidal activity (Table 16); type: in vivo; conditions: post-emergence, 336 h, 14 d; for pest or weed control at 35 g/ha: 35 g ai/ha; for pest or weed control at 70 g/ha: 70 g ai/ha; for pest or weed control at 140 g/ha: 140 g ai/ha
Method in brief: as §1

[3] = Abutilon theophrasti, velvetleaf (Abutilon theophrasti), read-out: Visual Growth Reduction (%) 14 Days After Application, ABUTH
[4] = Amaranthus retroflexus, redroot pigweed (Amaranthus retroflexus), read-out: Visual Growth Reduction (%) 14 Days After Application, AMARE
[5] = Brassica napus, oilseed rape, canola (Brassica napus), read-out: Visual Growth Reduction (%) 14 Days After Application, BRSNN
[6] = Chenopodium album, lambsquarters (Chenopodium album), read-out: Visual Growth Reduction (%) 14 Days After Application, CHEAL
[7] = Euphorbia heterophylla, wild poinsettia (Euphorbia heterophylla), read-out: Visual Growth Reduction (%) 14 Days After Application, EPHHL
[8] = Helianthus annuus, sunflower (Helianthus annuus), read-out: Visual Growth Reduction (%) 14 Days After Application, HELAN
[9] = Cyperus esculentus, yellow nutsedge (Cyperus esculentus), read-out: Visual Growth Reduction (%) 14 Days After Application, CYPES
[10] = Echinochloa crus-galli, barnyardgrass (Echinochloa crus-galli), read-out: Visual Growth Reduction (%) 14 Days After Application, ECHCG
[11] = Oryza sativa, rice (Oryza sativa), read-out: Visual Growth Reduction (%) 14 Days After Application, ORYSA
[12] = Setaria faberi, giant foxtail (Setaria faberi), read-out: Visual Growth Reduction (%) 14 Days After Application, SETFA
[13] = Triticum aestivum, wheat, spring (Triticum aestivum), read-out: Visual Growth Reduction (%) 14 Days After Application, TRZAS
[14] = Zea mays, maize, corn (Zea mays), read-out: Visual Growth Reduction (%) 14 Days After Application, ZEAMX

SMILES | melting point | pest or weed control at 35 g/ha [1, 3] | pest or weed control at 70 g/ha [1, 3] | pest or weed control at 140 g/ha [1, 3] | pest or weed control at 35 g/ha [1, 4] | pest or weed control at 70 g/ha [1, 4] | pest or weed control at 140 g/ha [1, 4] | pest or weed control at 35 g/ha [1, 5] | pest or weed control at 70 g/ha [1, 5] | pest or weed control at 140 g/ha [1, 5] | pest or weed control at 35 g/ha [1, 6] | pest or weed control at 70 g/ha [1, 6] | pest or weed control at 140 g/ha [1, 6] | pest or weed control at 35 g/ha [1, 7] | pest or weed control at 70 g/ha [1, 7] | pest or weed control at 140 g/ha [1, 7] | pest or weed control at 35 g/ha [1, 8] | pest or weed control at 70 g/ha [1, 8] | pest or weed control at 140 g/ha [1, 8] | pest or weed control at 35 g/ha [2, 9] | further results
COC(=O)c1nc(-c2ccc3cc[nH]c3c2F)c(F)c(N)c1OC [Compound 1.20] | 203 to 205 °C | 45 to 59% | 60 to 74% | 60 to 74% | 75 to 84% | 85 to 94% | 95 to 100% | 95 to 100% | 95 to 100% | 95 to 100% | 95 to 100% | 95 to 100% | 95 to 100% | 95 to 100% | 95 to 100% | 95 to 100% | 95 to 100% | 95 to 100% | 95 to 100% | 0 to 29% | pest or weed control at 70 g/ha [2, 9]: 0 to 29%; pest or weed control at 140 g/ha [2, 9]: 0 to 29%; pest or weed control at 35 g/ha [2, 10]: 0 to 29%; pest or weed control at 70 g/ha [2, 10]: 60 to 74%; pest or weed control at 140 g/ha [2, 10]: 75 to 84%; pest or weed control at 35 g/ha [2, 11]: 0 to 29%; pest or weed control at 70 g/ha [2, 11]: 0 to 29%; pest or weed control at 140 g/ha [2, 11]: 0 to 29%; pest or weed control at 35 g/ha [2, 12]: 45 to 59%; pest or weed control at 70 g/ha [2, 12]: 75 to 84%; pest or weed control at 140 g/ha [2, 12]: 85 to 94%; pest or weed control at 35 g/ha [2, 13]: 0 to 29%; pest or weed control at 70 g/ha [2, 13]: 45 to 59%; pest or weed control at 140 g/ha [2, 13]: 60 to 74%; pest or weed control at 35 g/ha [2, 14]: 30 to 44%; pest or weed control at 70 g/ha [2, 14]: 45 to 59%; pest or weed control at 140 g/ha [2, 14]: 60 to 74%
COC(=O)c1nc(-c2ccc(Cl)c3[nH]ccc23)cc(N)c1Cl [Compound 1.44] | 116 °C | 0 to 29% | 75 to 84% | 85 to 94% | 85 to 94% | 95 to 100% | 95 to 100% | 0 to 29% | 0 to 29% | 30 to 44% | 85 to 94% | 85 to 94% | 95 to 100% | 45 to 59% | 75 to 84% | 85 to 94% | 0 to 29% | 0 to 29% | 0 to 29% | 0 to 29% | pest or weed control at 70 g/ha [2, 9]: 0 to 29%; pest or weed control at 140 g/ha [2, 9]: 0 to 29%; pest or weed control at 35 g/ha [2, 10]: 0 to 29%; pest or weed control at 70 g/ha [2, 10]: 0 to 29%; pest or weed control at 140 g/ha [2, 10]: 0 to 29%; pest or weed control at 35 g/ha [2, 11]: 0 to 29%; pest or weed control at 70 g/ha [2, 11]: 0 to 29%; pest or weed control at 140 g/ha [2, 11]: 0 to 29%; pest or weed control at 35 g/ha [2, 12]: 0 to 29%; pest or weed control at 70 g/ha [2, 12]: 0 to 29%; pest or weed control at 140 g/ha [2, 12]: 0 to 29%; pest or weed control at 35 g/ha [2, 13]: 0 to 29%; pest or weed control at 70 g/ha [2, 13]: 0 to 29%; pest or weed control at 140 g/ha [2, 13]: 0 to 29%; pest or weed control at 35 g/ha [2, 14]: 0 to 29%; pest or weed control at 70 g/ha [2, 14]: 0 to 29%; pest or weed control at 140 g/ha [2, 14]: 0 to 29%
